Measurements published in ChEMBL document CHEMBL4665754, “Discovery of a coumarin derivative as Nrf2 activator mitigating oxidative stress and fibrosis in mesangial cells under high glucose” (Bioorg Med Chem Lett, 2020).
The source made the active and inactive calls. The calls are words filed in the database; no cut-off is given here.

Tests used:
[1] = target: T1, Keap1/Nrf2 (Homo sapiens) (UniProt Q16236+Q14145); assay: Disruption of interaction between Nrf2/Keap1 (unknown origin) in mesangial cells assessed as reduction in high glucose-induced collagen IV secretion at 10 uM by ELISA; type: cell-based; settings: Mesangial cell
T1 sequence (Q14145 whole entry, looked up, one chain of several): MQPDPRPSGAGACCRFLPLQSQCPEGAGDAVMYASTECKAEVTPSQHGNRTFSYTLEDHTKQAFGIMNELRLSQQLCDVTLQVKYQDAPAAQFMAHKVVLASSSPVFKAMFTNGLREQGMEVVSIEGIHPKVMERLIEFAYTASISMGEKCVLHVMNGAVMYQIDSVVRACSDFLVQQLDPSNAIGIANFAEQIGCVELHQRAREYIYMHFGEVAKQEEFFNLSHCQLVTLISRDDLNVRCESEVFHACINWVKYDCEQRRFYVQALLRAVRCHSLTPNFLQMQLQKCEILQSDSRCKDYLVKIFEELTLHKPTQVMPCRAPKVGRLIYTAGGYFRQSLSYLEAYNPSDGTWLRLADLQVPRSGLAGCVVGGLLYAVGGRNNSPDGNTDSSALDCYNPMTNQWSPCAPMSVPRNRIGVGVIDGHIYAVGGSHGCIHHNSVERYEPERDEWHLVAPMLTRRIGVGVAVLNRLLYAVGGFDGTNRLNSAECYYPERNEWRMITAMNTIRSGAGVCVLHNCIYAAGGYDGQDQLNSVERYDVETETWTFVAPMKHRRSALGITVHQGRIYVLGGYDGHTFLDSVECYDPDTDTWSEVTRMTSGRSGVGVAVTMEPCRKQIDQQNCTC

[2] = target: T1, Keap1/Nrf2 (Homo sapiens); assay: Disruption of interaction between Nrf2/Keap1 (unknown origin) in mesangial cells assessed as reduction in high glucose-induced intracellular MDA level at 10 uM; type: cell-based; settings: Mesangial cell
Mesangial cell [3] = assay: Inhibition of glucose-induced cell proliferation in Mesangial cell (unknown origin) at 10 uM by CCK8 assay; type: functional, tissue-based
[4] = Cytotoxicity against Mesangial cell (unknown origin) at 0.01 to 100 uM by CCK8 assay; type: tissue-based; settings: dose 0.01-100 µM
[5] = target: T2, Nuclear factor erythroid 2-related factor 2 (Homo sapiens) (UniProt Q16236); assay: Activation of Nrf2 (unknown origin) in mesangial cell assessed as increase in translocation of Nrf2 into nuclei from cytosol at 5 to 10 uM in presence of high glucose by Western blot based densitometric assay; type: tissue-based; settings: dose microM 5-10
T2 sequence (whole entry): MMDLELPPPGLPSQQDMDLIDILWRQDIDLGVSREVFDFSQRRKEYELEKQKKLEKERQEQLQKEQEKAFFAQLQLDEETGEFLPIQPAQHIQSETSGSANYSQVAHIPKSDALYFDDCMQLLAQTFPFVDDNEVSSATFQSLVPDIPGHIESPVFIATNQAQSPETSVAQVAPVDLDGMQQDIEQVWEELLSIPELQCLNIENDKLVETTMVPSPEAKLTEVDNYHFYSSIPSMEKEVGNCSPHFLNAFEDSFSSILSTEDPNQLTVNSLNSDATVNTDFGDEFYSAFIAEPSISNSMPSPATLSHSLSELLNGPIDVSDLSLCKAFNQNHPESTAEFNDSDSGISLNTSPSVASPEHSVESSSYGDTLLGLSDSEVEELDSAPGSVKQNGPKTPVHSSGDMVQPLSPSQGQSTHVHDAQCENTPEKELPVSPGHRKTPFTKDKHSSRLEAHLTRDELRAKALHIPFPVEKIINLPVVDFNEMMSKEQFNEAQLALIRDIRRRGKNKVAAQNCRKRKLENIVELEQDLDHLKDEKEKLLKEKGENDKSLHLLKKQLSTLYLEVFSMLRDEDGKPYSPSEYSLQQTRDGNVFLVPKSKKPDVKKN

[6] = target: T1, Keap1/Nrf2 (Homo sapiens); assay: Disruption of interaction between Nrf2/Keap1 (unknown origin) in mesangial cell assessed as decrease in Keap1 immunoprecipitate at 10 uM in presence of high glucose by Co-immunoprecipitation assay; type: tissue-based
[7] = target: T1, Keap1/Nrf2 (Homo sapiens); assay: Disruption of interaction between Nrf2/Keap1 (unknown origin) in mesangial cell assessed as increase of Nrf2 immunoprecipitate at 10 uM in presence of high glucose by Co-immunoprecipitation assay; type: tissue-based
[8] = target: T1, Keap1/Nrf2 (Homo sapiens); assay: Disruption of interaction between Nrf2/Keap1 (unknown origin) in mesangial cells assessed as reduction in high glucose-induced fibronectin secretion at 10 uM in presence of 10 uM ML385 by ELISA; type: cell-based; settings: Mesangial cell
[9] = target: T1, Keap1/Nrf2 (Homo sapiens); assay: Disruption of interaction between Nrf2/Keap1 (unknown origin) in mesangial cells assessed as reduction in high glucose-induced collagen IV secretion at 10 uM in presence of 10 uM ML385 by ELISA; type: cell-based; settings: Mesangial cell
[10] = target: T1, Keap1/Nrf2 (Homo sapiens); assay: Disruption of interaction between Nrf2/Keap1 (unknown origin) in mesangial cells assessed as reduction in high glucose-induced fibronectin secretion at 5 to 10 uM by ELISA; type: cell-based; settings: Mesangial cell, dose microM 5-10
[11] = target: T1, Keap1/Nrf2 (Homo sapiens); assay: Disruption of interaction between Nrf2/Keap1 (unknown origin) in mesangial cells assessed as reduction in high glucose-induced collagen IV secretion at 5 to 10 uM by ELISA; type: cell-based; settings: Mesangial cell, dose microM 5-10
[12] = target: T1, Keap1/Nrf2 (Homo sapiens); assay: Disruption of interaction between Nrf2/Keap1 (unknown origin) in mesangial cells assessed as reduction in high glucose-induced intracellular MDA level at 10 uM in presence of 10 uM ML385; type: cell-based; settings: Mesangial cell
[13] = target: T1, Keap1/Nrf2 (Homo sapiens); assay: Disruption of interaction between Nrf2/Keap1 (unknown origin) in mesangial cells assessed as reduction in high glucose-induced intracellular ROS production at 10 uM in presence of 10 uM ML385 by DCFH-DA assay; type: cell-based; settings: Mesangial cell
[14] = target: T1, Keap1/Nrf2 (Homo sapiens); assay: Disruption of interaction between Nrf2/Keap1 (unknown origin) in mesangial cells assessed as reduction in high glucose-induced intracellular MDA level at 5 to 10 uM; type: cell-based; settings: Mesangial cell, dose microM 5-10
[15] = target: T1, Keap1/Nrf2 (Homo sapiens); assay: Disruption of interaction between Nrf2/Keap1 (unknown origin) in mesangial cells assessed as reduction in high glucose-induced intracellular ROS production at 5 to 10 uM by DCFH-DA assay; type: cell-based; settings: Mesangial cell, dose microM 5-10
[16] = target: T2, Nuclear factor erythroid 2-related factor 2 (Homo sapiens); assay: Activation of Nrf2 (unknown origin) in mesangial cell assessed as increase in transcription ability of Nrf2 binding to ARE by measuring increase luciferase activity at 5 to 10 uM in presence of high glucose by luciferase reporter gene assay; type: tissue-based; settings: dose microM 5-10
[17] = target: T2, Nuclear factor erythroid 2-related factor 2 (Homo sapiens); assay: Activation of Nrf2 (unknown origin) in mesangial cell at 5 and 10 uM in presence of high glucose by Western blot based densitometric assay; type: tissue-based; settings: dose microM 5-10
[18] = target: T2, Nuclear factor erythroid 2-related factor 2 (Homo sapiens); assay: Activation of Nrf2 (unknown origin) in mesangial cell assessed as strong red fluorescence at 5 and 10 uM in presence of high glucose by immunofluorescence staining based assay; type: tissue-based; settings: dose microM 5-10
Mesangial cell [19] = assay: Inhibition of glucose-induced cell proliferation in Mesangial cell (unknown origin) at 5 and 10 uM by CCK8 assay; type: functional, tissue-based; settings: dose microM 5-10

Row | inhibition [1] | inhibition [2] | Activity [5] | Activity [6] | Activity [7] | inhibition [8] | inhibition [9] | inhibition [10] | inhibition [11] | inhibition [12] | inhibition [13] | inhibition [14] | inhibition [15] | Activity [16] | Activity [17] | Activity [18] | Compound | inhibition (Mesangial cell [3]) | Activity [4] | inhibition (Mesangial cell [19])
1 | Active | Active |  |  |  |  |  |  |  |  |  |  |  |  |  |  | O=c1ccc2ccc(Oc3cc4ccc(O)cc4oc3=O)cc2o1 [EDGEWORIN] | Active | Non-Toxic | 
2 | Active | Active |  |  |  |  |  |  |  |  |  |  |  |  |  |  | O=c1ccc2ccc(Oc3cc4ccc(=O)oc4cc3O)cc2o1 | Active | Non-Toxic | 
3 |  |  | Active | Active | Active | inactive | inactive | Active | Active | inactive | inactive | Active | Active | Active | Active | Active | COc1cc2cc(Oc3ccc4ccc(=O)oc4c3)c(=O)oc2cc1O[C@@H]1O[C@H](CO)[C@@H](O)[C@H](O)[C@H]1O [DAPHNORIN] |  | Non-Toxic | Active
4 | Active | Active |  |  |  |  |  |  |  |  |  |  |  |  |  |  | COc1cc2cc(Oc3ccc4ccc(=O)oc4c3)c(=O)oc2cc1O [DAPHNORETIN] | Active | Non-Toxic | 
